Data on 1 compound can be found in patent publication US20090274687A1, “ATTENUATION OF HYPOXIA INDUCED CARDIOVASCULAR DISORDERS” (University Of Miami, priority 2008, published 2009).

Entries after “also recorded” stand apart in the source; their conditions may differ.

Test [1] concerns FVB/NJ neonatal mice exposed to normobaric hypoxia (hypoxia-induced pulmonary hypertension). Briefly: Prevention: neonatal mice exposed to 1 wk hypoxia, daily intraperitoneal treatment postnatal day 1-7. It counts as in vivo. How it is done: Animal Care and Treatment: Sixty Eight FVB/NJ neonatal mice exposed to normobaric hypoxia (10% O2) or normoxia (20.9% O2) for one week were randomly assigned to receive daily intraperitoneal injections of normal saline (PL; n=19), or AMD3100 (7.5 mg/kg; n=10) or anti-SDF-1 antibody ([…]; n=19) for seven days, from postnatal day 1-7.

The subject of test [2] is CXCR4 receptor. Particulars: cited from earlier work.

For `c1cc(CN2CCCNCCNCCCNCC2)ccc1CN1CCCNCCNCCCNCC1` [AMD3100, 1,1′-[1,4-phenylenebis(methylene)]bis-1,4,8,11-tetraazacyclotetradecane], the “vascular remodeling (medial wall thickness), morphometric analysis of pulmonary arterioles” value in test [1] (1 wk hypoxia, 20-50 μm diameter arterioles, vs Hyp PL, FIG. 5D) is “marked decrease; also recorded: markedly attenuated”. Further, the RV c-kit expression result in test [1] (1 wk hypoxia, right ventricle, vs Hyp PL, FIG. 4C) is recorded as “significantly decreased”. The “RV Sca-1 expression” value in test [1] (1 wk hypoxia, right ventricle, vs Hyp PL, FIG. 4D) is “significantly decreased”. Also, the “RV Isl-1 expression” value in test [1] (1 wk hypoxia, right ventricle, vs Hyp PL, FIG. 4E) is “significantly decreased”. Besides, in test [1] (1 wk hypoxia, to baseline or near baseline values, FIGS. 4A-4E), the “protein expression of stem cell markers (c-kit, Sca-1) in lungs and right ventricles” value was “significantly decreased”. In addition, in test [1] (1 wk hypoxia, vs Hyp PL, to near baseline values, FIG. 4A), the lung c-kit expression result is listed as “significantly decreased”. Also, in test [1] (1 wk hypoxia, vs Hyp PL, to near baseline values, FIG. 4B), the “lung Sca-1 expression” value is “significantly decreased”. Further, the RVSP entry in test [1] (1 wk hypoxia, vs placebo, FIG. 5A) is given as “close to baseline values; also recorded: significantly attenuated”. In test [1] (1 wk hypoxia, vs placebo, FIG. 5B), the “RV Hypertrophy (RV/LV+S)” value is “close to baseline values; also recorded: significantly attenuated”. Also, in test [1] (1 wk hypoxia, vs placebo, FIG. 5C), the “number of muscularized pulmonary arterioles (α-smooth muscle actin staining)” value is “decreased”. Besides, the “percentage of non-muscularized pulmonary arterioles” value in test [1] (1 wk hypoxia, vs placebo, FIG. 5E) was “significantly increased”. Also, in test [1] (1 wk hypoxia, vs placebo, FIG. 5F), the “mean linear intercept (MLI), lung alveolarization” value is “significantly decreased”. For the same compound, the “number of PCNA+ cells in the pulmonary vasculature (cell proliferation)” value in test [1] (hypoxic mouse pups vs Hyp PL, FIGS. 6A-6B) was “significantly attenuated”. Further, the “number of TUNEL+ cells in the pulmonary vasculature (apoptosis)” value in test [1] (hypoxic mouse pups vs Hyp PL, FIGS. 6D-6E) is reported as “significantly attenuated”. The “phosphorylated-Akt expression in lungs” value in test [1] (treated mouse pups vs placebo, FIG. 6C) is on record as “marked decrease”. Further, the “affinity relative to its affinity in CXCR4” value in test [2] (after introduction of Glu VII:06 and removal of Lys VII:02) is listed as at most 10 fold. In addition, in test [2] (introduction of a Glu at position VII:06 and removal of a neutralizing Lys residue at position VII:02), the “increase in affinity of AMD3100” value is on record as 1000 fold.
